From ChEMBL document CHEMBL5210121, “Affinity On-target Cellular Literature for EUbOPEN Chemogenomics Library wave 3” (2023)

Key:
Protein AF-9 [1] = target: T1, Protein AF-9 (Homo sapiens, UniProt P42568)
Protein AF-9 [2] = target: T1, Protein AF-9; experiment: Affinity On-target Cellular interaction (NanoBRET assay (HEK293T cells)) EUB0000732a MLLT3; design: mode of action Negative control for PFI-6, recommended concentration 1 uM
[3] = target: T2, NADH dehydrogenase [ubiquinone] iron-sulfur protein 2, mitochondrial (Homo sapiens, UniProt O75306); experiment: Affinity On-target Cellular interaction (Cellular activity assay (measurement of ATP levels in presence of complex II substrate succinate in H1299 cells)) EUB0000752a NDUFS2; assay type: cell-based; design: mode of action Inhibitor, recommended concentration 1 uM
T2 sequence (O75306 whole entry): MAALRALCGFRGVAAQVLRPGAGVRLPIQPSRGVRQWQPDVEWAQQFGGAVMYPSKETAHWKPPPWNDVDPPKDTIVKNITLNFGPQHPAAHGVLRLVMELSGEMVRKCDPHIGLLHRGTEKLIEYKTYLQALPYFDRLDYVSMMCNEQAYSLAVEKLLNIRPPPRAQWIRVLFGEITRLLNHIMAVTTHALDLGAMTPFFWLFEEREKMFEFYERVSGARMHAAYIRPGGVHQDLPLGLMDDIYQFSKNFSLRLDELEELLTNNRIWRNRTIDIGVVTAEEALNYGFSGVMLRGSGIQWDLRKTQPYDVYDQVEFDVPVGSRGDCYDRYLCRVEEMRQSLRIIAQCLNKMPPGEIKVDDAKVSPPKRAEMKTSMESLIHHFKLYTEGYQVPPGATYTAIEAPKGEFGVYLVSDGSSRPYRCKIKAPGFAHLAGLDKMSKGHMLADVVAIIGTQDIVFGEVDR

Protein ENL = Protein ENL (Homo sapiens, UniProt Q03111); experiment: Affinity On-target Cellular interaction (NanoBRET assay (HEK293T cells)) EUB0000283b MLLT1; design: mode of action Inhibitor, recommended concentration 1 uM
Sequence of Protein ENL (Q03111 whole entry): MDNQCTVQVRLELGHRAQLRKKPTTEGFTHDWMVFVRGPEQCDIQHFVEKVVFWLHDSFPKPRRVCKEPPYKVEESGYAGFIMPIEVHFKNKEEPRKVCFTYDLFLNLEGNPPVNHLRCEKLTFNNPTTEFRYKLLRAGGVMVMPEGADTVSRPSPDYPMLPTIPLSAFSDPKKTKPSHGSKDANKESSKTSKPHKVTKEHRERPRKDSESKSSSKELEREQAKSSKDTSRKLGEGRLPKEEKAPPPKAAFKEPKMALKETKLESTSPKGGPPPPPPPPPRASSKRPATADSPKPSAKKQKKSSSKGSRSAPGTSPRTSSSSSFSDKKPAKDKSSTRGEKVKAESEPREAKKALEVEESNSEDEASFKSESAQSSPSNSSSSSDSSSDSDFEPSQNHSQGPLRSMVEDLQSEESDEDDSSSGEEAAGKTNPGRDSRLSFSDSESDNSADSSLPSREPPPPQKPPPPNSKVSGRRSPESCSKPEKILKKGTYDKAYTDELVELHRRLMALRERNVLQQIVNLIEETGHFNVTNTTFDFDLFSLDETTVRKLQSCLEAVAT

[4] = target: Protein farnesyltransferase subunit beta (Homo sapiens, UniProt P49356); experiment: Affinity On-target Cellular interaction (Western Blot (inhibition of Ras in NIH 3T3 H-Ras cells)) EUB0000289c FNTB; assay type: cell-based; design: mode of action Inhibitor, recommended concentration 1 uM
Sequence of Protein farnesyltransferase subunit beta (P49356 whole entry): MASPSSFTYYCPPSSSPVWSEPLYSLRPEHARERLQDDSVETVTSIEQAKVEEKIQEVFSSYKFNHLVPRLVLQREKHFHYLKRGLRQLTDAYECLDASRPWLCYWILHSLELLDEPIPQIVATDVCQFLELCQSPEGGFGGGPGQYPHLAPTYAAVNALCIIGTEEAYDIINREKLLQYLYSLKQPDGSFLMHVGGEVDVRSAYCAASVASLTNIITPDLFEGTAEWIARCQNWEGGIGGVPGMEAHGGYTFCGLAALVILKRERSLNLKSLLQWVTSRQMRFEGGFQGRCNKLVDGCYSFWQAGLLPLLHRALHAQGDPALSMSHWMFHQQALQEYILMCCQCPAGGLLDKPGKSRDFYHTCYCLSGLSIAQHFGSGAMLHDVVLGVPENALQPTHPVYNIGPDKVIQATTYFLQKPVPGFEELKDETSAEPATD

[5] = target: T2, NADH dehydrogenase [ubiquinone] iron-sulfur protein 2, mitochondrial; experiment: Affinity On-target Cellular interaction (Cellular activity assay (measurement of ATP levels in presence of complex II substrate succinate in H1299 cells)) EUB0000748a NDUFS2; assay type: cell-based; design: mode of action Negative control for BAY-179, recommended concentration 1 uM
[6] = Affinity On-target Cellular interaction (Measles Virus Inhibition Assay) EUB0000745a DHODH
[7] = target: Cytochrome P450 11B2, mitochondrial (Homo sapiens, UniProt P19099); experiment: Affinity On-target Cellular interaction (HTRF-based assay (V79 cell lines, CisBio)) EUB0000733a CYP11B2; design: mode of action Negative control for MSD-CYP11B2, recommended concentration 100 nM
Sequence of Cytochrome P450 11B2, mitochondrial (P19099 whole entry): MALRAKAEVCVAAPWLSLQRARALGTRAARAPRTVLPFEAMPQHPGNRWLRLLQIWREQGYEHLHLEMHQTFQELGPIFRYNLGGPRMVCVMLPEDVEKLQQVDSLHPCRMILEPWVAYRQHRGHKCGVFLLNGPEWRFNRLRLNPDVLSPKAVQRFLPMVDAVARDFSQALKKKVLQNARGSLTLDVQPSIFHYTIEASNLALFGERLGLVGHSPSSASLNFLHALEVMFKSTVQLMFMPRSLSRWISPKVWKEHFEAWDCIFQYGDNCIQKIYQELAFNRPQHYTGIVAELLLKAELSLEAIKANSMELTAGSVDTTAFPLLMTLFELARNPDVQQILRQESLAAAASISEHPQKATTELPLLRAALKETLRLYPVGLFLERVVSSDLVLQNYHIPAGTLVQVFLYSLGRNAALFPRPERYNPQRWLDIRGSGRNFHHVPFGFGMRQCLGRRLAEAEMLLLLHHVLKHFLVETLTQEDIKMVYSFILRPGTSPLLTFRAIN

[8] = Affinity On-target Cellular interaction (Cell-based assay) EUB0000315b MGAT2

T1 sequence (P42568 whole entry): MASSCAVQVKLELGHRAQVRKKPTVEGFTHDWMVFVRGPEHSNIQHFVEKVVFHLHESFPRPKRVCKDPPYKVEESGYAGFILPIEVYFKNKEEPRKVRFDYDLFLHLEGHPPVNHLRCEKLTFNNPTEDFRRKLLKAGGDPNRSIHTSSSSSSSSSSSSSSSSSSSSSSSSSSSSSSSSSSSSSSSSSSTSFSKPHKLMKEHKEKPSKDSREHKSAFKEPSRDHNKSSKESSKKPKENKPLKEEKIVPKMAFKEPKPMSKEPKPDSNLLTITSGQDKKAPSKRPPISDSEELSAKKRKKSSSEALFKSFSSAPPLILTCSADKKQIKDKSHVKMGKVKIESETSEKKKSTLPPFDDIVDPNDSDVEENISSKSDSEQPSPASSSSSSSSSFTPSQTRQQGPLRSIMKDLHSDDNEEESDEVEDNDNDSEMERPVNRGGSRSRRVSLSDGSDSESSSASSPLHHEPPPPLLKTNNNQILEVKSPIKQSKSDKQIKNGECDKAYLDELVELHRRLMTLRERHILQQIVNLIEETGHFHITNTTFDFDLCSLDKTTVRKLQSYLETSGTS

CN(C)C(=O)c1ccc(-c2cc(C(=O)N[C@@H]3CCc4ccccc43)no2)cc1O
IC50 (Protein AF-9 [1]): 760 nM

CN(C)C(=O)c1ccc(-c2cc(C(=O)N(C)C3CCCC3)no2)cc1O
IC50 (Protein AF-9 [2]): > 30000 nM

c1ccc2oc(-c3csc(C4CCN(Cc5nc6ncccc6[nH]5)CC4)n3)cc2c1
IC50 [3]: 79 nM

C[C@H]1CCCN1Cc1nc2cc(NC(=O)c3ccc4cnccc4c3)ccc2[nH]1
IC50 (Protein ENL): 500 nM

Cn1cncc1[C@](O)(COc1ccc(C#N)cc1-c1ccc(OC(F)(F)F)cc1)c1ccc(C#N)cc1 [ABT-100]
EC50 [4]: 0.73 nM

Cn1c(-c2csc(C3CCN(CC4=NC5N=CC=CC5N4)CC3)n2)nc2ccccc21 (centres undefined) [BAY-070]
IC50 [5]: > 30000 nM

Cc1c(Oc2ccc(F)cc2)c(OC(C)C)nn1-c1ccc(C2CC2)cn1 [IPP/CNRS-A019]
IC50 [6]: 1200 nM

FC(F)(F)c1ccc2c(c1)nc(-c1cccnc1)n2C1CC1 [MSD-CYP11B2-Negative-control]
IC50 [7]: > 10000 nM

Cn1nc(C(F)(F)F)cc1-c1cnc(N2CCc3cc(S(=O)(=O)Nc4c(F)cc(Cl)cc4F)cc(N4CCCC4=O)c32)nc1 [TP-020]
IC50 [8]: 160 nM
